Drawing on PubChem BioAssay AID1648 (Sanford-Burnham Center for Chemical Genomics, 2009), this text covers Kd for 105 compounds.

The target of the test is Serine/threonine-protein kinase mTOR (Homo sapiens) (UniProt P42345). The test is described as follows: mTOR FRB domain ligand binding – biophysical, NMR (AID 1648). The settings on record: NMR binding to FRB domain, chemical shift.

Activity calls are given as the source filed them. The rule behind the calls is not given here.

Chain of Serine/threonine-protein kinase mTOR (Homo sapiens) (P42345 2015-2114): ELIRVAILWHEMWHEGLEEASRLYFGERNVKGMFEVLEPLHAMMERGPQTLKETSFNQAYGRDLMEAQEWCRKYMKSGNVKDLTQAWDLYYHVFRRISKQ

Consider `Cc1c(C(=O)NCc2ccccn2)oc2ccccc12`, for which the Kd (commonly the equilibrium constant for the complex coming apart) was > 4 mM (inactive).
For `CCOC(=O)C(C)c1n[nH]c(=O)c2ccccc12` (stereo not given) the value was > 4 mM (inactive); for `COc1ccc2c(c1)CCCN2C(N)=O`, > 4 mM (inactive); for `CC(=O)c1nnc2cc(C)nn2c1C`, > 4 mM (inactive).
For `NC(=O)C1CCN(c2nccc(C(F)(F)F)n2)CC1` the value was > 4 mM (inactive); for `CCCCN1C(=O)C2CC/C(=N/O)CC2C1=O` (stereo not given), > 4 mM (inactive).
`Cc1ccccc1NC(=O)CC1SC(N)=NC1=O` (stereo not given): the Kd was > 4 mM (inactive).
The figure for `COc1cccc(NC(=O)c2ocnc2C)c1` is > 4 mM (inactive); for `Cc1cc(SCC(=O)Nc2nccs2)nc(=O)[nH]1` it is > 4 mM (inactive).
For `O=C(O)C1CSC(c2ccccc2)N1` (stereo not given) the value was > 4 mM (inactive).
The figure for `CC(N)C(=O)c1ccco1` (stereo not given) is > 4 mM (inactive); for `Cc1cc(C)nc(/N=C(/N)N2CCOCC2)n1` it is > 4 mM (inactive).
With `CCOC(=O)Cn1cnc2sc3c(c2c1=O)CCC3`, the Kd was > 4 mM (inactive).
For `O=C(/C=C/c1ccccc1)c1ccc(O)cc1`, the Kd was > 4 mM (inactive).
For `COc1ccc(/C=C2/N=C(N)SC2=O)cc1` the value was > 4 mM (inactive); for `Cc1nn(CC(=O)Nc2ccccn2)c(=O)c2ccccc12`, > 4 mM (inactive); for `COC1C=CC23c4cc5c(cc4CN(CC2O)[C@@H]3C1)OCO5` (stereo not given in full), > 4 mM (inactive).
The figure for `COC(=O)c1cccc(N)c1` is > 4 mM (inactive).
The figure for `COc1cc([C@@H]2c3cc4c(cc3[C@H](OC(C)=O)[C@H]3COC(=O)[C@H]23)OCO4)cc(OC)c1OC` is > 4 mM (inactive).
In the case of `OCc1ccc(-n2cccn2)cc1`, the Kd is > 4 mM (inactive).
For `COc1cc2c(cc1OC)[C@@H]1C(=O)c3ccc(OC)c(CC=C(C)C)c3O[C@@H]1CO2` the value was > 4 mM (inactive); for `CN1C(=O)C2C=CC1C1C(=O)N(c3ccccc3)C(=O)C21` (stereo not given), > 4 mM (inactive); for `COC(=O)C1CCc2ccccc2N1` (stereo not given), > 4 mM (inactive).
The figure for `NC(=S)CN1CCCC1=O` is > 4 mM (inactive); for `c1ccc2c(c1)ncn2CCn1cnc2ccccc21` it is > 4 mM (inactive).
For `O=c1[nH]c(=S)[nH]c2c1CCC2` the value was > 4 mM (inactive); for `CC(=O)Nc1ccc2c(c1)n(C)c(=O)n2C`, > 4 mM (inactive).
As to `O=C(O)C1(S(=O)(=O)c2ccccc2)CC1`, the Kd was > 4 mM (inactive).
The figure for `Cn1cnnc1SCC(=O)Nc1ccccc1` is > 4 mM (inactive).
The figure for `Cc1nc2ccccc2c(=O)n1/N=C/c1ccncc1` is > 4 mM (inactive); for `O=C(O)c1ccc2c(c1)CCO2` it is > 4 mM (inactive).
In the case of `CC(=O)Nc1ccc(C(=O)NC2=NCCS2)cc1`, the Kd is > 4 mM (inactive).
For `O=C1CCCN1c1ccc(S(=O)O)cc1` the value was > 4 mM (inactive).
The figure for `Cc1cc(OC(=O)c2ccco2)c([N+](=O)[O-])c(=O)[nH]1` is > 4 mM (inactive); for `Nc1ccc(N2CCOCC2)c(Cl)c1` it is > 4 mM (inactive); for `O=P1(O)c2ccccc2Nc2ccccc21` it is > 4 mM (inactive).
The figure for `CCOC(=O)c1c(C)cc(O)c(C)c1O` is > 4 mM (inactive); for `CCSc1nc(=S)n(CC)c(C)c1C(C)=O` it is > 4 mM (inactive).
Take `Nc1cc(F)nc(F)n1`: the Kd is > 4 mM (inactive).
The figure for `O=C(O)c1cccc(-n2cccc2)c1` is > 4 mM (inactive); for `C=C[C@](C)(O)CCC=C(C)C` it is > 4 mM (inactive); for `Cc1cc(/C=N/O)nc(=O)[nH]1` it is > 4 mM (inactive).
The figure for `CSCCNC(C)=O` is > 4 mM (inactive).
The figure for `O=C(Nc1nncs1)c1c(F)c(F)c(F)c(F)c1F` is > 4 mM (inactive); for `O=C(O)c1ccc2nsnc2c1` it is > 4 mM (inactive); for `COc1ccccc1-c1n[nH]c(=O)o1` it is > 4 mM (inactive).
As to `Cc1cc(C)n(S(=O)(=O)c2cc(C)c(C)cc2C)n1`, the Kd was > 4 mM (inactive).
The figure for `C[n+]1ccc(C(=O)[O-])cc1` is > 4 mM (inactive); for `c1ccc(CCNc2ncnc3nc[nH]c23)cc1` it is > 4 mM (inactive); for `Cc1cc(C)n(CC(=O)NC2CCCCC2)n1` it is > 4 mM (inactive).
Consider `NC(=O)CCN1C(=O)c2ccccc2C1=O`, for which the Kd is > 4 mM (inactive).
On to `COc1ccc(C(=O)NCC(=O)O)cc1`, for which the Kd is > 4 mM (inactive).
With `O=C(Nc1cccc(Cl)c1)c1ccncc1`, the Kd is > 4 mM (inactive).
Take `COC(=O)c1cc2ccccc2cn1`: the Kd was > 4 mM (inactive).
The figure for `COC(=O)c1ccccc1C` is > 4 mM (inactive); for `COc1ccc2c(c1)OCC(Cc1ccc(OC)c(OC)c1)C2=O` (stereo not given) it is > 4 mM (inactive).
With `CCOC(=O)Cn1cnc2c1c(=O)[nH]c(=O)n2C`, the Kd was > 4 mM (inactive).
The figure for `NC(=O)C1CCN(C(=O)Nc2ccccc2)CC1` is > 4 mM (inactive); for `Cc1cc(=O)[nH]c(N)n1` it is > 4 mM (inactive).
Take `NC(=O)CSc1ccc2nnc(-c3ccccc3)n2n1`: the Kd is > 4 mM (inactive).
The figure for `Nc1ncnc2c1ncn2C1C[C@H](O)[C@@H](CO)O1` (stereo not given in full) is > 4 mM (inactive).
The figure for `NC(=O)COc1ccccc1O` is > 4 mM (inactive); for `COc1ccccc1NC(=O)/C=N/O` it is > 4 mM (inactive).
As for `CN1CCc2c(sc(N)c2C#N)C1`, the Kd is > 4 mM (inactive).
With `C/C=C/C(=O)Nc1ccc(NC(C)=O)cc1`, the Kd was > 4 mM (inactive).
Turning to `Cc1ccc(-c2nc(N)n(C(=O)c3cccnc3)n2)cc1`, the Kd was > 4 mM (inactive).
For `CCNCC(O)c1ccc([N+](=O)[O-])cc1` (stereo not given) the value was > 4 mM (inactive); for `Cc1cc(Cl)ccc1NC(=O)C(N)=O`, > 4 mM (inactive); for `CCCCCC1C(=O)CCC1CC(=O)O` (stereo not given), > 4 mM (inactive).
For `CO[C@H]1[C@@H](O)[C@@H](C)O[C@H](O[C@H]2CCC3(C)C4CCC5(C)[C@@H](C6=CC(=O)OC6)CC[C@]5(O)[C@@H]4CC[C@]3(O)C2)[C@@H]1O` (stereo not given in full) the value was > 4 mM (inactive); for `COc1cc([C@@H]2c3cc4c(cc3C(OC3O[C@@H]5COC(C)O[C@H]5[C@H](O)[C@H]3O)C3COC(=O)[C@@H]32)OCO4)cc(OC)c1O` (stereo not given in full), > 4 mM (inactive); for `CC1(C)C(=O)C=C[C@@]2(C)C1=C(O)C(=O)[C@]1(C)C2CC[C@@]2(C)[C@H](c3ccoc3)C[C@H]3O[C@]321` (stereo not given in full), > 4 mM (inactive).
Regarding `CC(=O)Nc1cc2c(cc1C(=O)C(C)C)OCCO2`, the Kd was > 4 mM (inactive).
The figure for `Cc1nc2ccccc2c(=O)n1NC(=O)Nc1ccccc1` is > 4 mM (inactive); for `Cc1ccc(NC(=O)N2CCC(C(N)=O)CC2)cc1` it is > 4 mM (inactive); for `O=C1C(=O)N(CN2CCN(CCO)CC2)c2ccccc21` it is > 4 mM (inactive).
For `NC(=O)Cn1cnc2c(cnn2-c2ccccc2)c1=O` the value was > 4 mM (inactive).
For `Cc1ccc(-c2nn3c(C)nnc3s2)cc1N` the value was > 4 mM (inactive); for `O=C(Nc1cccnc1)Nc1ccc2c(c1)OCO2`, > 4 mM (inactive).
`CCCNC(=O)CSc1ncccc1C(=O)O`: the Kd is > 4 mM (inactive).
`CCC(=O)Nc1cccc(NC(C)=O)c1`: the Kd is > 4 mM (inactive).
For `Nc1ncc2[nH]cnc2n1` the value was > 4 mM (inactive); for `S=c1ccc(N2CCCCC2)n[nH]1`, > 4 mM (inactive); for `CC(=O)N1CCn2c3c(c(=O)c4cc(C)ccc42)CCC31` (stereo not given), > 4 mM (inactive).
The figure for `CC(C)c1c(O)ccc2c1CCC1[C@@](C)(CO)CCC[C@]21C` (stereo not given in full) is > 4 mM (inactive); for `Fc1cccc(Cl)c1CN1CCCNCC1` it is > 4 mM (inactive); for `O=C(O)CCCC(=O)Nc1nccs1` it is > 4 mM (inactive).
The figure for `COC[C@]12CN(C=O)C3[C@@H]4[C@H](OC)C1[C@]3(C1CC3(O)C(OC)C(O)C4(OC(C)=O)C1C3OC(=O)c1ccccc1)[C@@H](OC)C[C@H]2O` (stereo not given in full) is > 4 mM (inactive).
With `Cn1cc(Cl)c(C(=O)NC2CCCC2)n1`, the Kd was > 4 mM (inactive).
Consider `O=C(NC12CC3CC(CC(C3)C1)C2)c1cnccn1`, for which the Kd is > 4 mM (inactive).
For `O=C1CSC(=S)N1N1C(=O)C2C3C=CC(C3)C2C1=O` (stereo not given) the value was > 4 mM (inactive).
For `Nc1csc(C(=O)O)c1` the value was > 4 mM (inactive); for `CCOC(=O)CSc1nnc(C)c(=O)[nH]1`, > 4 mM (inactive); for `COC(=O)c1cccc(Cn2nnc3ccccc3c2=O)c1`, > 4 mM (inactive).
For `CCN1C(=O)c2c(C)nc3ccccc3c2C1=O` the value was > 4 mM (inactive).
Take `Cc1nnsc1-c1onc(C)c1C(=O)O`: the Kd is > 4 mM (inactive).
For `O=C1C(=O)N(CNc2ncccn2)c2ccccc21` the value was > 4 mM (inactive); for `O=[N+]([O-])c1c[n+]([O-])n(-c2ccccc2)n1`, > 4 mM (inactive).
For `O=c1[nH]c(N2CCOCC2)nc2ccccc12` the value was > 4 mM (inactive); for `O=C(Nc1nncs1)Oc1ccccc1`, > 4 mM (inactive).
For `Cc1occc1C(=O)Nc1nnc(C2CCCCC2)s1` the value was > 4 mM (inactive); for `Nc1cc(=O)[nH]c(=O)n1-c1ccccc1`, > 4 mM (inactive).
For the compound `Cn1c(CO)nc2ccccc21`, the Kd was > 4 mM (inactive).
For `O=C(Nc1ccccc1)Nc1ccccc1` the value was > 4 mM (inactive); for `O=C(Nc1ccc(Cl)cn1)c1cnn2cccnc12`, > 4 mM (inactive).
